Biological target: T1, recombinant human SAE enzyme (Homo sapiens, UniProt Q9UBT2)
T1 sequence (Q9UBT2 1-640): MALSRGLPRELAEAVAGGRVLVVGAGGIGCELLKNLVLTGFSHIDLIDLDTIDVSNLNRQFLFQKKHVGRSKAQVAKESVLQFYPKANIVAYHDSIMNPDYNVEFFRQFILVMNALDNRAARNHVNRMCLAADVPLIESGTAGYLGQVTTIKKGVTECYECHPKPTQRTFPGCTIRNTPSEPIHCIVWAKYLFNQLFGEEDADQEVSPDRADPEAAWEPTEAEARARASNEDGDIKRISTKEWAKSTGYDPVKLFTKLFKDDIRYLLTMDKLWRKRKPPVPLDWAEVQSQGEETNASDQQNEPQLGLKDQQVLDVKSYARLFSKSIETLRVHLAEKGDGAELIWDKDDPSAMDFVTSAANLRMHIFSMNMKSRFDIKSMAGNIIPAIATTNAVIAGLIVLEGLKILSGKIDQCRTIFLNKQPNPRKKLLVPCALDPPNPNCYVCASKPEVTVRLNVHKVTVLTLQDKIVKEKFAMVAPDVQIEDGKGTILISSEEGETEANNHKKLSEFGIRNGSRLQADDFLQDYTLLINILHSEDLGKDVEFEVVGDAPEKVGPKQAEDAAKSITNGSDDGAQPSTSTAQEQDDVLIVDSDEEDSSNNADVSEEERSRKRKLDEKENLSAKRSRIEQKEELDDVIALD
T1 sequence (Q9UBE0 1-346 partner): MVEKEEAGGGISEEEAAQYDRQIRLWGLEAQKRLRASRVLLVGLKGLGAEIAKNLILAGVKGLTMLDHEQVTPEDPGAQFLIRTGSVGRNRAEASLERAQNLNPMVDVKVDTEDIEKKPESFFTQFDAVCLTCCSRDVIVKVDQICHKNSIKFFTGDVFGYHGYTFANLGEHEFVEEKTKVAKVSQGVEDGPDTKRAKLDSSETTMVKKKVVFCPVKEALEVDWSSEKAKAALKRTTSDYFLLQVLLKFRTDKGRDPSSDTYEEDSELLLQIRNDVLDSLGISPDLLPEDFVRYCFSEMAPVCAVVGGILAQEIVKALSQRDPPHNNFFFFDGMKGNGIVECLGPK
Test: SAE HTRF Enzyme Assay
Format: biochemical
Settings: for IC50: class symbols A-C; for inhibition at 0.111 µM: read-out: Percent Inhibition
Summary of the method: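 HTRF signal from Eu-anti-Flag/APC-anti-GST pairs reports Sumo-Flag loaded onto Ubc9-GST by 0.11 nM SAE. Reaction: 0.5 μM ATP, 0.125 μM Sumo-Flag, 0.01 μM Ubc9-GST, 5 mM MgCl2, pH 7.5, 105 min, 24° C. Single-concentration % inhibition or IC50 reported.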

[1] = compound concentration 0.111 μM

Structure (SMILES)	IC50 [nM]	inhibition at 0.111 µM [1] [%]	Percent Inhibition (compound concentration 0.111 μM, 0.111 µM) [%]
NS(=O)(=O)OC[C@H]1C[C@@H](Nc2ncncc2C(=O)c2ccn(Cc3cc4ccccc4o3)c2)[C@@H](F)[C@@H]1O [Compound I-110, {(1R,2R,3R,4R)-4-[(5-{[1-(1-benzofuran-2-ylmethyl)-1H-pyrrol-3-yl]carbonyl}pyrimidin-4-yl)amino]-3-fluoro-2-hydroxycyclopentyl}methyl sulfamate]	< 10	99	
NS(=O)(=O)OC[C@H]1C[C@@H](Nc2ncncc2C(=O)c2ccn(Cc3ccc4ccccc4c3)n2)C[C@@H]1O [Compound I-48, {(1R,2S,4R)-2-hydroxy-4-[(5-{[1-(2-naphthylmethyl)-1H-pyrazol-3-yl]carbonyl}pyrimidin-4-yl)amino]cyclopentyl}methyl sulfamate]	< 10	96	
NS(=O)(=O)OC[C@H]1C[C@@H](Nc2ncncc2C(=O)c2cc(Cl)n(Cc3cccc(I)c3)c2)[C@@H](F)[C@@H]1O [Compound I-310, {(1R,2R,3R,4R)-4-[(5-{[5-chloro-1-(3-iodobenzyl)-1H-pyrrol-3-yl]carbonyl}pyrimidin-4-yl)amino]-3-fluoro-2-hydroxycyclopentyl}methyl sulfamate]	< 10	98	
NS(=O)(=O)OC[C@H]1C[C@@H](Nc2ncncc2C(=O)c2ccn(Cc3ccccc3)n2)C(F)(F)[C@@H]1O [Compound I-203, [(1R,2R,4R)-4-({5-[(1-benzyl-1H-pyrazol-3-yl)carbonyl]pyrimidin-4-yl}amino)-3,3-difluoro-2-hydroxycyclopentyl]methyl sulfamate]	< 10	94	
NS(=O)(=O)OC[C@H]1C[C@@H](Nc2ncncc2C(=O)c2ccn(CC3=CCCCC3)n2)C[C@@H]1O [Compound I-252, {(1R,2S,4R)-4-[(5-{[1-(cyclohex-1-en-1-ylmethyl)-1H-pyrazol-3-yl]carbonyl}pyrimidin-4-yl)amino]-2-hydroxycyclopentyl}methyl sulfamate]	< 10	97	
C#CCn1ccc(C(=O)c2cncnc2N[C@@H]2C[C@H](COS(N)(=O)=O)[C@@H](O)C2)c1 [Compound I-330, {(1R,2S,4R)-2-hydroxy-4-[(5-{[1-{prop-2-yn-1-yl)-1H-pyrrol-3-yl]carbonyl}pyrimidin-4-yl)amino]cyclopentyl}methyl sulfamate]	10 to 100	82	
NS(=O)(=O)OC[C@H]1C[C@@H](Nc2ncncc2C(=O)c2ccn(Cc3ccc(F)cc3C(F)(F)F)n2)C[C@@H]1O [Compound I-328, [(1R,2S,4R)-4-{[5-({1-[4-fluoro-2-(trifluoromethyl)benzyl]-1H-pyrazol-3-yl}carbonyl)pyrimidin-4-yl]amino}-2-hydroxycyclopentyl]methyl sulfamate]	10 to 100	65	
NS(=O)(=O)OC[C@H]1C[C@@H](Nc2ncncc2C(=O)c2ccn(Cc3ccc(F)c(Br)c3)n2)C[C@@H]1O [Compound I-72, {(1R,2S,4R)-4-[(5-{[1-(3-bromo-4-fluorobenzyl)-1H-pyrazol-3-yl]carbonyl}pyrimidin-4-yl)amino]-2-hydroxycyclopentyl}methyl sulfamate]	< 10	100	
NS(=O)(=O)OC[C@H]1C[C@@H](Nc2ncncc2C(=O)c2ccn(Cc3cccc(Cl)n3)c2)[C@@H](F)[C@@H]1O [Compound I-8, [(1R,2R,3R,4R)-4-{[5-({1-[(6-Chloropyridin-2-yl)methyl]-1H-pyrrol-3-yl}carbonyl)pyrimidin-4-yl]amino}-3-fluoro-2-hydroxycyclopentyl]methyl sulfamate]	< 10	99	
NS(=O)(=O)OC[C@H]1C[C@@H](Nc2ncncc2C(=O)c2ccn(Cc3ccc(SC(F)(F)F)cc3)n2)[C@H](O)[C@@H]1O [Compound I-259, [(1R,2R,3S,4R)-2,3-dihydroxy-4-({5-[(1-{4-[(trifluoromethyl)sulfanyl]benzyl}-1H-pyrazol-3-yl)carbonyl]pyrimidin-4-yl}amino)cyclopentyl]methyl sulfamate]	< 10	95	
CC(C)(C)C#CCn1ccc(C(=O)c2cncnc2N[C@@H]2C[C@H](COS(N)(=O)=O)[C@@H](O)[C@@H]2F)c1 [Compound I-26, {(1R,2R,3R,4R)-4-[(5-{[1-(4,4-dimethylpent-2-yn-1-yl)-1H-pyrrol-3-yl]carbonyl}pyrimidin-4-yl)amino]-3-fluoro-2-hydroxycyclopentyl}methyl sulfamate]	10 to 100	90	
Cc1ccc(Cn2ccc(C(=O)c3cncnc3N[C@@H]3C[C@H](COS(N)(=O)=O)[C@@H](O)C3)n2)cc1F [Compound I-210, {(1R,2S,4R)-4-[(5-{[1-(3-Fluoro-4-methylbenzyl)-1H-pyrazol-3-yl]carbonyl}pyrimidin-4-yl)amino]-2-hydroxycyclopentyl}methyl sulfamate]	< 10	98	
NS(=O)(=O)OC[C@H]1C[C@@H](Nc2ncncc2C(=O)c2ccn(Cc3cccc(Br)c3)c2)C[C@@H]1O [Compound I-333, {(1R,2S,4R)-4-[(5-{[1-(3-bromobenzyl)-1H-pyrrol-3-yl]carbonyl}pyrimidin-4-yl)amino]-2-hydroxycyclopentyl}methyl sulfamate]	< 10	99	
Cn1nc(C(F)(F)F)cc1Cn1ccc(C(=O)c2cncnc2N[C@@H]2C[C@H](COS(N)(=O)=O)[C@@H](O)C2)c1 [Compound I-45, [(1R,2S,4R)-2-hydroxy-4-({5-[(1-{[1-methyl-3-(trifluoromethyl)-1H-pyrazol-5-yl]methyl}-1H-pyrrol-3-yl)carbonyl]pyrimidin-4-yl}amino)cyclopentyl]methyl sulfamate]	10 to 100	93	
NS(=O)(=O)OC[C@H]1C[C@@H](Nc2ncncc2C(=O)c2ccn(Cc3cccc(Br)n3)n2)[C@H](O)[C@@H]1O [Compound I-284, [(1R,2R,3S,4R)-4-{[5-({1-[(6-bromopyridin-2-yl)methyl]-1H-pyrazol-3-yl}carbonyl)pyrimidin-4-yl]amino}-2,3-dihydroxycyclopentyl]methyl sulfamate]	< 10	100	
CC(c1cccc(Br)n1)n1ccc(C(=O)c2cncnc2N[C@@H]2C[C@H](COS(N)(=O)=O)[C@@H](O)C2)n1 (single isomer, unassigned) [Compound I-65, [(1R,2S,4R)-4-{[5-({1-[(1S)-1-(6-bromopyridin-2-yl)ethyl]-1H-pyrazol-3-yl}carbonyl)pyrimidin-4-yl]amino}-2-hydroxycyclopentyl]methyl sulfamate or [(1R,2S,4R)-4-{[5-({1-[(1R)-1-(6-bromopyridin-2-yl)ethyl]-1H-pyrazol-3-yl}carbonyl)pyrimidin-4-yl]amino}-2-hydroxycyclopentyl]methyl sulfamate]	< 10		99
NS(=O)(=O)OC[C@H]1C[C@@H](Nc2ncncc2C(=O)c2ccn(Cc3ccc(F)c(I)c3)n2)[C@@H](F)[C@@H]1O [Compound I-178, {(1R,2R,3R,4R)-3-fluoro-4-[(5-{[1-(4-fluoro-3-iodobenzyl)-1H-pyrazol-3-yl]carbonyl}pyrimidin-4-yl)amino]-2-hydroxycyclopentyl}methyl sulfamate]	< 10	99	
NS(=O)(=O)OC[C@H]1C[C@@H](Nc2ncncc2C(=O)c2ccn(Cc3cccc(Br)n3)n2)C[C@@H]1O [Compound I-352, [(1R,2S,4R)-4-{[5-({1-[(6-bromopyridin-2-yl)methyl]-1H-pyrazol-3-yl}carbonyl)pyrimidin-4-yl]amino}-2-hydroxycyclopentyl]methyl sulfamate]	< 10	99	
NS(=O)(=O)OC[C@H]1C[C@@H](Nc2ncncc2C(=O)c2cc(Cl)n(Cc3ccc(C(F)(F)F)o3)c2)[C@@H](F)[C@@H]1O [Compound I-36, [(1R,2R,3R,4R)-4-({5-[(5-chloro-1-{[5-(trifluoromethyl)-2-furyl]methyl}-1H-pyrrol-3-yl)carbonyl]pyrimidin-4-yl}amino)-3-fluoro-2-hydroxycyclopentyl]methyl sulfamate]	< 10	99	
NS(=O)(=O)OC[C@H]1C[C@@H](Nc2ncncc2C(=O)c2ccn(Cc3cccc(Cl)n3)n2)C[C@@H]1O [Compound I-95, [(1R,2S,4R)-4-{[5-({1-[(6-chloropyridin-2-yl)methyl]-1H-pyrazol-3-yl}carbonyl)pyrimidin-4-yl]amino}-2-hydroxycyclopentyl]methyl sulfamate]	< 10	99	

From US9695154B2, “Heteroaryl inhibitors of sumo activating enzyme” (MILLENNIUM PHARMACEUTICALS, INC., priority 2013, dated 2017)
